Laboratory results as given in US8710099B2, “Treatment of cancer using the sodium salt of a benzoic acid derivative” (New York University, priority 2009, dated 2014).

Assays:
B16F10 melanoma cells [1] = assay: In vivo tumor growth of B16F10 xenografts in nude mice; conditions: daily i.p. for 15 days, TAXOL® 0.5 μM, C-45 100 μg; FIG. 4
Procedure: In addition, tumor growth in vivo of xenografts of B16F10 melanoma cells in nude mice was determined Briefly, subconfluent cultures of B16F10 cells were harvested, washed, and resuspended in sterile PBS. Female nude mice were injected subcutaneously with 1×10^6 cells per mouse and tumors were allowed to grow for 3 days. After 3 days, mice were either untreated or treated daily for 15 days by intraperitoneal injection of TAXOL® (0.5 μM), C-45 (100 μg), or a combination of TAXOL® and C-45. Tumor growth was determined weekly by caliper measurements. After 15 days, the mice were sacrificed and tumor volume was determined by standard methods using the formula […], where V=volume, L=length, and W=width.

B16F10 melanoma cells [2] = assay: Tumor cell proliferation, WST-1 tetrazolium salt cleavage; type: cell-based; conditions: 50 μg/ml test compound, 0.01 μM TAXOL®; vs untreated control; FIG. 3A
Procedure: (§1) Tumor cell proliferation was assessed by monitoring mitochondrial dehydrogenase activity as detected by tetrazolium salt cleavage using a commercially available kit (WST-1; Roche, Indianapolis, Ind.). Briefly, B16F10 melanoma cells, Lewis Lung carcinoma cells, and 4T1 breast carcinoma cells (1×10^6) were resuspended in PABA-free growth medium supplemented with 2.0% fetal bovine serum and 50 μg/ml of test compound (as shown in FIG. 1) Following incubation for 3 days, the cells were either treated or not treated with 0.01 μM TAXOL® and incubated for an additional 48 hours. Proliferation was measured; data points represent the mean optical density at 490 nm±SD from triplicate wells.

[3] = system: 4T1 breast carcinoma cells; assay: as above; type: cell-based; conditions: 50 μg/ml test compound, 0.01 μM TAXOL®; vs untreated control; FIG. 3C
Procedure: as §1

[4] = system: Lewis Lung carcinoma cells; assay: as above; type: cell-based; conditions: 50 μg/ml test compound, 0.01 μM TAXOL®; vs untreated control; FIG. 3B
Procedure: as §1

[5] = system: tyrosinase (from mushrooms); assay: Purified tyrosinase activity, DOPAchrome formation; type: biochemical; conditions: 8.0 mM, up to 10 minutes; FIG. 2
Procedure: Activity of purified tyrosinase was measured by monitoring the formation of DOPAchrome. Briefly, a fixed concentration of L-DOPA (8.0 mM) was incubated with 800 U/ml tyrosinase (from mushrooms-Sigma, St. Louis, Mo.) in the absence or presence of increasing concentrations of PABA, compound 44 (C-44) and compound 45 (C-45) (see FIG. 1 for structures) for indicated time points (see FIG. 2 for concentrations and time points). At each time point, 100 μl of the reaction mixture was measured. Data points represent the mean optical density at 475 nm±SD from triplicate wells.

B16F10 melanoma cells [6] = assay: Chick embryo tumor growth model; type: in vivo, chick embryos; conditions: for growth of the B16F10 tumors: 50 μg/ml C-45, TAXOL® 0.01 μM, FIG. 5B
Procedure: The chick embryo tumor growth model was used to determine whether C-45 enhances the ability of TAXOL® or ionizing radiation to inhibit tumor growth. Briefly, B16F10 melanoma cells were cultured in growth medium in the presence or absence of 50 μg/ml C-45 for at least 7 days. Following harvesting and washing, about 2×10^5 tumor cells were implanted onto the chorioallontoic membranes of 10 day-old chick embryos and incubated for at least 24 hours. Following incubation, the embryos were treated with either a single fractionated dose of radiation (5.0 Gy) or TAXOL® (paclitaxel) (0.01 μM) and incubated for an additional 7 days. The embryos were sacrificed and tumors were resected and weighed (5-10 embryos per condition).

PXR/SXR receptor = molecular target: T1, PXR/SXR receptor (Homo sapiens, UniProt O75469); conditions: Moore et al., Mol. Endocrinol. 2002; cited from earlier work
T1 sequence (O75469 1-434): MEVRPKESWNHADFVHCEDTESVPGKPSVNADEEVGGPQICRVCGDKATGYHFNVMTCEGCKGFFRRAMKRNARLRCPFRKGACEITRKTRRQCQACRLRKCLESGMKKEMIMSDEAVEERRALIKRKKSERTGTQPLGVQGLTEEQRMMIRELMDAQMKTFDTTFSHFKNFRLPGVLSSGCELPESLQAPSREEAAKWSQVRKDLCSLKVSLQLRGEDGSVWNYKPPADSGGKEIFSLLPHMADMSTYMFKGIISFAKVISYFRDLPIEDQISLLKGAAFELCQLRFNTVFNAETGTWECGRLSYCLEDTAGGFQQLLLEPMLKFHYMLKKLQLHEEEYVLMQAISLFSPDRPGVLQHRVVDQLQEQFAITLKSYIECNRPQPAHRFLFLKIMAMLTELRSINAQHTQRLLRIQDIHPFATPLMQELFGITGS

[7] = system: G361 human melanoma cells; assay: Protein expression in PABA-treated G361 melanoma cells (data not shown); type: cell-based; conditions: G361 cells treated with PABA

| SMILES | in vivo tumor growth compared to untreated controls (B16F10 melanoma cells [1]) | in vitro proliferation of B16F10 cells (B16F10 melanoma cells [2]) | in vitro proliferation of 4T1 breast carcinoma cells [3] | in vitro proliferation of Lewis Lung carcinoma cells [4] | tyrosinase activity [5] | growth of the B16F10 tumors (B16F10 melanoma cells [6]) | tumor growth in vivo, combination with radiation (B16F10 melanoma cells [6]; 50 μg/ml C-45 plus single dose of radiation 5.0 Gy, FIG. 5A) | tumor weight (B16F10 melanoma cells [6]; cells cultured with 50 μg/ml C-45, C-45 alone, FIG. 5A) | binding to the PXR/SXR receptor (PXR/SXR receptor) | expression of cell-cycle progression checkpoint protein CDC25A [7] | protein expression of DNA repair protein BRCA-2 [7] |
| --- | --- | --- | --- | --- | --- | --- | --- | --- | --- | --- | --- |
| C=CCNc1ccc(C(=O)O)cc1 [C-45, 4-allylaminobenzoic acid] | neither TAXOL® nor C-45 inhibited in vivo tumor growth | inhibited in vitro proliferation | inhibited in vitro proliferation | inhibited in vitro proliferation | inhibited tyrosinase activity | inhibited the growth of the B16F10 tumors significantly | even more effective at inhibiting tumor growth | reduced tumor weight significantly | – | – | – |
| CC(=O)O[C@H]1C(=O)[C@@]2(C)[C@H]([C@H](OC(=O)c3ccccc3)[C@]3(O)C[C@H](OC(=O)[C@H](O)[C@@H](NC(=O)c4ccccc4)c4ccccc4)C(C)=C1C3(C)C)[C@]1(OC(C)=O)CO[C@@H]1C[C@@H]2O [TAXOL®, paclitaxel, reference compound] | neither TAXOL® nor C-45 inhibited in vivo tumor growth | inhibited in vitro proliferation | inhibited in vitro proliferation | inhibited in vitro proliferation | – | inhibited the growth of the B16F10 tumors significantly | – | – | – | – | – |
| Nc1ccc(C(=O)O)cc1 [PABA, para-amino-benzoic-acid] | – | – | – | – | inhibited tyrosinase activity | – | – | – | bind to the PXR/SXR receptor | increase expression | decreased protein expression |
